The text below walks through data of publication PMC2375326, “In vitro evaluation of amino acid prodrugs of novel antitumour 2-(4-amino-3-methylphenyl)benzothiazoles” (British Journal of Cancer, 2002).

Data set [1] relates to ACHN. The data set can be described thus: NCI in vitro cytotoxicity assay (SRB), ACHN. It is filed as cell-based. Conditions: Homo sapiens, 48 h exposure, sulforhodamine B assay, mean graph, read-out: Log10 GI50 (ACHN) (converted). How it is done: (§1) Cell culture and drug application procedures have been described previously ([Boyd and Paull, 1995]). Briefly, cell lines were inoculated into a series of 96-well microtiter plates, with varied seeding densities depending on growth characteristics of each cell line. Following a 24 h drug free incubation, test agents were added at five 10-fold dilutions with a maximum concentration of 100 μM. Cellular protein levels were determined after 48 h drug exposure by sulphorhodamine B colorimetry.

The subject of data set [2] is SF-539. Put plainly: NCI in vitro cytotoxicity assay (SRB), SF-539. It is filed as cell-based. Conditions: Homo sapiens, 48 h exposure, sulforhodamine B assay, mean graph, read-out: Log10 GI50 (SF-539) (converted). Here is the method:
as §1

The test system of data set [3] is SR. The data set can be described thus: NCI in vitro cytotoxicity assay (SRB), SR. It counts as cell-based. The settings on record: Homo sapiens, 48 h exposure, sulforhodamine B assay, mean graph, read-out: Log10 GI50 (SR) (converted). Here is the method:
as §1

The test system of data set [4] is SF-268. The data set can be described thus: NCI in vitro cytotoxicity assay (SRB), SF-268. It is filed as cell-based. Conditions: Homo sapiens, 48 h exposure, sulforhodamine B assay, mean graph, read-out: Log10 GI50 (SF-268) (converted). Here is the method: as §1
In data set [5] the test system is SK-MEL-28. The data set can be described thus: NCI in vitro cytotoxicity assay (SRB), SK-MEL-28. Conditions: Homo sapiens, 48 h exposure, sulforhodamine B assay, mean graph, read-out: Log10 GI50 (SK-MEL-28) (converted). It is filed as cell-based. How it is done: as §1
Data set [6] deals with CYP1A1 activity (EROD) in MCF-7 cells. The data set can be described thus: Induction of EROD activity in lysates of treated MCF-7 cells. The settings on record: lysates of MCF-7 cells treated with 1 μM, 24 h; negligible activity in untreated lysates; mean of three, s.d. <10%. It is filed as cell-based, human. How it is done:
A sensitive and rapid fluorometric assay was used to measure EROD activity ([Burke et al, 1994]). Incubation mixtures (total 1 ml) consisted of 100 mM Tris-HCl (pH 7.4), 50 μM MgCl2, 100 μM 7-ethoxyresorufin and 100 μl cell homogenate. Homogenates were prepared following treatment of cells for 24 h with compounds 1, 2, 2a, 2b, 3, 3a, 3b, 4, 4a and 4b or vehicle alone and protein content determined (n=3). Thus induction of ethoxyresorufin O-deethylation by agents under study, catalysed by CYP1A1 activity, could be determined. Alternatively, microsomes expressing recombinant CYP1A1 (0.1 mg ml^−1) provided the enzyme source for EROD catalysis, in the presence or absence of drug, in order to determine inhibition of CYP1A1 activity by compounds 1, 2, 2a, 2b, 3, 3a, 3b, 4, 4a and 4b. Incubation mixtures were pre-incubated for 5 min at 37°C before initiation of reaction by addition of NADPH (500 μM). Following further incubations at 37°C (30 min for cell homogenates, 15 min for CYP1A1 microsomes), reactions were terminated by addition of 3 ml ice-cold acetonitrile. Reaction mixtures were centrifuged (1400 r.p.m., 10 min) before analyses of supernatants. Fluorescence was read on a Perkin-Elmer LS-5 luminescence spectrometer (excitation, 530 nm; emission 585 nm). Estimation of resorufin reaction product (pmoles mg^−1 protein, pmoles 100 μg^−1 microsomes), as a measure of CYP1A1 activity, was determined following performance of a resorufin standard curve.

In data set [7] the test system is MOLT-4. The data set can be described thus: NCI in vitro cytotoxicity assay (SRB), MOLT-4. It counts as cell-based. Conditions: Homo sapiens, 48 h exposure, sulforhodamine B assay, mean graph, read-out: Log10 GI50 (MOLT-4) (converted). How it is done:
as §1

Data set [8] relates to SN12C. The data set can be described thus: NCI in vitro cytotoxicity assay (SRB), SN12C. It counts as cell-based. The settings on record: Homo sapiens, 48 h exposure, sulforhodamine B assay, mean graph, read-out: Log10 GI50 (SN12C) (converted). Here is the method: as §1
In general terms: Sulforhodamine B stains cellular protein and so reports cell mass.

The test system of data set [9] is DU-145. Put plainly: NCI in vitro cytotoxicity assay (SRB), DU-145. It is filed as cell-based. The settings on record: Homo sapiens, 48 h exposure, sulforhodamine B assay, mean graph, read-out: Log10 GI50 (DU-145) (converted). How it is done: as §1
Data set [10] concerns MCF-7 (ER+) human derived breast carcinoma cells. Put plainly: Growth inhibitory assay (MTT), MCF-7. The settings on record: MCF7, ER+ MCF-7, 3 days (72 h) treatment, n=8, representative mean, ^a = biphasic dose response. It counts as cell-based. How it is done: Prodrugs were prepared as 10 mM top stocks, dissolved in dimethylsulphoxide (DMSO) or sterile ddH2O, and stored at 4°C, protected from light for a maximum period of 4 weeks. MCF-7 (ER+) and MDA 468 (ER−) human derived breast carcinoma cells, cultivated at 37°C in an atmosphere of 5% CO2 in RPMI 1640 medium supplemented with 2 mM L-glutamine and 10% foetal calf serum, were routinely subcultured twice weekly to maintain continuous logarithmic growth. Cells were seeded into 96-well microtiter plates at a density of 5×10^3 per well and allowed 24 h to adhere before drugs were introduced (final concentration 0.1 nM–100 μM, n=8). Serial drug dilutions were prepared in medium immediately prior to each assay. Viable cell masses at the time of drug addition (time-zero), and following 72 h drug exposure were determined by cell-mediated 3-(4,5-dimethylthiazol-2-yl)-2,5-diphenyltetrazolium bromide (MTT) reduction. MTT was added to each well (final concentration 400 μg ml^−1) and plates were incubated at 37°C for 4 h to allow reduction of MTT by viable cell dehydrogenases to an insoluble formazan product. Well supernatants were aspirated and cellular formazan solubilised by addition of DMSO : glycine buffer (pH 10.5) (4 : 1). Cell growth as well as drug activity were determined by measuring absorbance at 550 nm using an Anthos Labtec systems plate reader.

Data set [11] has as its system BT-549. Put plainly: NCI in vitro cytotoxicity assay (SRB), BT-549. It is filed as cell-based. The settings on record: Homo sapiens, 48 h exposure, sulforhodamine B assay, mean graph, read-out: Log10 GI50 (BT-549) (converted). Here is the method: as §1
The subject of data set [12] is SK-MEL-5. Put plainly: NCI in vitro cytotoxicity assay (SRB), SK-MEL-5. It counts as cell-based. The settings on record: Homo sapiens, 48 h exposure, sulforhodamine B assay, mean graph, read-out: Log10 GI50 (SK-MEL-5) (converted). Here is the method:
as §1

The test system of data set [13] is SNB-75. Put plainly: NCI in vitro cytotoxicity assay (SRB), SNB-75. It is filed as cell-based. Conditions: Homo sapiens, 48 h exposure, sulforhodamine B assay, mean graph, read-out: Log10 GI50 (SNB-75) (converted). Here is the method:
as §1

Data set [14] has as its system HOP-92. Put plainly: NCI in vitro cytotoxicity assay (SRB), HOP-92. It counts as cell-based. The settings on record: Homo sapiens, 48 h exposure, sulforhodamine B assay, mean graph, read-out: Log10 GI50 (HOP-92) (converted). How it is done:
as §1

Data set [15] has as its system HCT-15. The data set can be described thus: NCI in vitro cytotoxicity assay (SRB), HCT-15. It counts as cell-based. The settings on record: Homo sapiens, 48 h exposure, sulforhodamine B assay, mean graph, read-out: Log10 GI50 (HCT-15) (converted). Here is the method: as §1
For data set [16], the system named is T-47D. The data set can be described thus: NCI in vitro cytotoxicity assay (SRB), T-47D. It counts as cell-based. Conditions: Homo sapiens, T47D; 48 h exposure, sulforhodamine B assay, mean graph; read-out: Log10 GI50 (T-47D) (converted). Here is the method:
as §1

With `Cc1cc(-c2nc3cc(F)ccc3s2)ccc1NC(=O)[C@@H](N)CCCCN` [Compound 2b], the GI50 (as a rule, the concentration at which growth is held to half of that of the control) in [1] was 6.03 µM; in data set [2], 14.1 µM; in data set [3], 0.562 µM; in data set [4], 6.76 µM; in data set [5], 22.4 µM; in [7] it was 1 µM. Moreover, the GI50 is 12.3 µM in [8]; 16.2 µM in [9]; 0.0391 µM in [10]; 14.1 µM in data set [11]; 15.5 µM in data set [12]; 1.62 µM in [13]. Moreover, the concentration for 50% growth inhibition (GI50) in data set [14] was 15.1 µM; in data set [15], 5.25 µM; in data set [16], below 0.01 µM. The “Induction EROD activity” value in data set [6] is reported as 35.56 nM resorufin mg^-1 protein.

With `Cc1cc(-c2nc3cc(F)ccc3s2)ccc1N` [Compound 2, 2-(4-Amino-3-methylphenyl)-5-fluorobenzothiazole], the 50% growth inhibitory concentration (GI50) was 30.2 µM in [1]; 27.5 µM in [2]; below 0.01 µM in data set [3]; 58.9 µM in data set [4]; above 100 µM in [5]; above 100 µM in [7]. Moreover, the GI50 is 74.1 µM in data set [8]; 95.5 µM in data set [9]; below 0.0001 µM in data set [10]; above 100 µM in data set [11]; above 100 µM in data set [12]; 17 µM in [13]. For the same molecule, the GI50 in data set [14] is 36.3 µM; in [15], 7.94 µM; in data set [16] it was below 0.01 µM. For the same molecule, the “Induction EROD activity” value in [6] was 36.64 nM resorufin mg^-1 protein.
